Test results: patent US20050209157A1, “Short bioactive peptides and methods for their use” (priority 2001, published 2005)
In brackets after ≈: the same amount, converted by molar mass. Several values for one entry are separate records, joined by “and”; a condition that tells them apart may be missing. Identical values can stand only once. Like-named read-outs stand apart in the source and are kept apart here. No end group written: not given here.

Legend:
P. acne ATCC 6919 = assay: Antimicrobial assays II, NCCLS broth microdilution MIC; assay type: cell-based, Propionibacterium acnes; conditions: mean of three, in µg/mL
in vitro [1] = assay type: cell-based, human; conditions: human, human red blood cells, pH 7, hemolytic assay, concentration at 50% hemolysis, 1 hour at 37° C.; read-out: LD50
P. aeruginosa = assay type: cell-based, Pseudomonas aeruginosa; conditions: P. aeruginosa H744; MIC of nalidixic acid with peptide at ¼ MIC
Outline: (§1)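 Efflux-mutant strains were tested with two-fold serial dilutions of chloramphenicol or nalidixic acid, alone and with peptide held at ¼ of its own MIC.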

P. aeruginosa H774 = assay type: cell-based, Pseudomonas aeruginosa; conditions: P. aeruginosa H744; nalidixic acid + peptide at ¼ MIC; 0.5 or less = synergy
Outline: as §1

P. aeruginosa H374 [2] = assay type: cell-based, Pseudomonas aeruginosa; conditions: for MIC Cm-comb.: MIC of chloramphenicol with peptide at ¼ MIC; for MIC Nal-comb.: MIC of nalidixic acid with peptide at ¼ MIC; for FIC Index: 0.5 or less = synergy
Outline: as §1

S. pneumoniae C719 = assay: Antimicrobial assays II, NCCLS broth microdilution MIC; assay type: cell-based, Streptococcus pneumoniae; conditions: mean of three, in µg/mL
S. pyogenes ATCC19615 = assay: as above; assay type: cell-based, Streptococcus pyogenes; conditions: mean of three, in µg/mL
S. epidermidis C621 = assay type: cell-based, Staphylococcus epidermidis; conditions: for S. epidermidis C621 MIC: mean of three, 16 to 20 hours at 35° C.; for MIC S. epidermis C621: Table 13, in µg/mL
S. pneumoniae C718 = assay: Antimicrobial assays II, NCCLS broth microdilution MIC; assay type: cell-based, Streptococcus pneumoniae; conditions: mean of three
S. aureus (MRSA) = assay type: cell-based, Staphylococcus aureus; conditions: for S. aureus (MRSA) MIC: mean of three, 16 to 20 hours at 35° C.; for MIC S. aureus SAP0017: Table 13, strain SAP0017, in µg/mL
S. pyogenes M76 = assay: Antimicrobial assays II, NCCLS broth microdilution MIC; assay type: cell-based, Streptococcus pyogenes; conditions: mean of three; 16 to 20 hours at 35° C.
[3] = tested on: yeast (Saccharomyces cerevisiae); assay: Antimicrobial assay I, yeast assay in RPMI 1640; assay type: cell-based; conditions: RPMI 1640 media
[4] = tested on: Pseudomonas aeruginosa ATCC 9027; assay: Antimicrobial assay I, MIC by OD measurement; assay type: cell-based; conditions: 37° C. for 24 hours, absorbance 620 nm
[5] = tested on: Staphylococcus aureus ATCC 6538; assay: Antimicrobial assay I, MIC by OD measurement; assay type: cell-based; conditions: 37° C. for 24 hours, absorbance 620 nm
PC3 = assay: Anti-cancer assay, MTT, LD50; assay type: cell-based; conditions: 24 hours with peptide, prostate adenocarcinoma
From the text: (§2) Numbers are LD50 values (μg/mL).

MCF7 = assay: Anti-cancer assay, MTT, LD50; assay type: cell-based; conditions: MCF7 breast adenocarcinoma line, MTT, 24 hours with peptide
From the text: as §2

H1299 = assay: Anti-cancer assay, MTT, LD50; assay type: cell-based; conditions: 24 hours with peptide, lung large cell carcinoma
From the text: as §2

HeLaS3 = assay: Anti-cancer assay, MTT, LD50; assay type: cell-based; conditions: 24 hours with peptide, cervical carcinoma
From the text: as §2

SW480 = assay: Anti-cancer assay, MTT, LD50; assay type: cell-based; conditions: SW480 colon adenocarcinoma line, 24 hours with peptide
From the text: as §2

BMKC = assay: Anti-cancer assay, MTT, LD50; assay type: cell-based; conditions: BMKC cloned melanoma line, 24 hours with peptide
From the text: as §2

in vitro [6] = conditions: human, WI38 normal lung fibroblast cells, LD50 WI38, WI38 normal lung fibroblast line, MTT, 24 hours with peptide
WI38 = conditions: MTT, 24 hours with peptide; normal fibroblast line
P. aeruginosa H374 [7] = assay type: cell-based, Pseudomonas aeruginosa; conditions: in µg/mL
[8] = tested on: Pseudomonas aeruginosa H187; assay type: cell-based; conditions: in µg/mL
[9] = tested on: Candida glabrata ATCC15126; assay: Antimicrobial assays II, NCCLS broth microdilution MIC; assay type: cell-based; conditions: Table 13; in µg/mL
E. coli UB1005 = assay type: cell-based, Escherichia coli; conditions: Table 12
[10] = tested on: Pseudomonas aeruginosa 100609; assay type: cell-based; conditions: Table 9; in µg/mL
Candida albicans 105 = assay type: cell-based; conditions: Table 13; in µg/mL
[11] = tested on: Pseudomonas aeruginosa 105663; assay type: cell-based; conditions: Table 9; in µg/mL
S. typhimurium 14028S = assay type: cell-based, Salmonella typhimurium; conditions: Table 12
[12] = chloramphenicol + peptide at ¼ MIC
[13] = nalidixic acid + peptide at ¼ MIC, FIC=0.25+MIC comb/MIC alone

| Molecule | P. acne MIC (P. acne ATCC 6919) | HC50 at 1 h (in vitro [1]) | MIC Nal-comb. (P. aeruginosa) | FIC Index (P. aeruginosa H774) | MIC Cm-comb. (P. aeruginosa H374 [2]) | MIC Nal-comb. (P. aeruginosa H374 [2]) | FIC Index (P. aeruginosa H374 [2]; [12]) | FIC Index (P. aeruginosa H374 [2]; [13]) | S. pneumoniae MIC (S. pneumoniae C719) | S. pyogenes MIC (S. pyogenes ATCC19615) | S. epidermidis C621 MIC (S. epidermidis C621) | S. pneumoniae MIC (S. pneumoniae C718) | S. aureus (MRSA) MIC (S. aureus (MRSA)) | S. pyogenes M76 MIC (S. pyogenes M76) | LD50 MCF7 (MCF7) | H1299 LD50 (H1299) | HeLaS3 LD50 (HeLaS3) | LD50 SW480 (SW480) | LD50 BMKC (BMKC) | CC50 at 24 h (in vitro [6]) | further results |
| --- | --- | --- | --- | --- | --- | --- | --- | --- | --- | --- | --- | --- | --- | --- | --- | --- | --- | --- | --- | --- | --- |
| CC(C)C[C@H](NC(=O)[C@H](C)NC(=O)[C@H](CC(C)C)NC(=O)[C@H](C)NC(=O)[C@H](CC(C)C)NC(=O)[C@H](CCCCN)NC(=O)[C@H](C)NC(=O)[C@H](CC(C)C)NC(=O)[C@H](CCCCN)NC(=O)[C@H](CCCCN)NC(=O)[C@H](C)NC(=O)[C@H](CC(C)C)NC(=O)[C@H](CCCCN)NC(=O)[C@H](C)NC(=O)[C@H](CC(C)C)NC(=O)[C@H](CCCCN)NC(=O)[C@H](CCCCN)NC(=O)[C@H](C)NC(=O)[C@@H](N)C(C)C)C(N)=O [P504] | 4 | 70 µg/mL | 1248 µg/mL | 2.25 | 16 µg/mL | 5000 µg/mL | 1.25 | 1.25 | 8 | 16 | 4 µg/mL | 64 µg/mL | 4 µg/mL | 8 µg/mL |  |  |  |  |  |  |  |
| FAKLLALALKKAL-NH2 [P97, FAKLLALALKKAL-NH2] | 8 and 16 |  | 78 µg/mL | 0.375 | 16 µg/mL | 5000 µg/mL | 1.25 | 1.25 | 16 and 32 | 4 and 8 | 4 µg/mL | 32 µg/mL | 8 µg/mL | 4 µg/mL |  |  |  |  |  |  | yeast (MIC or MFC) [3]: 50 µg/mL; paerug9027 (MIC) [4]: 50 µg/mL; staph6538 (MIC) [5]: 5 µg/mL |
| FAKKLAKKLKKLAKKLAKKWKL-OH [P72] | 2 | 110 µg/mL | 312 µg/mL | 0.75 | 8 µg/mL | 2500 µg/mL | 0.75 | 0.75 | 16 | 16 | 4 µg/mL | > 128 µg/mL | 16 µg/mL | 16 µg/mL | 93 µg/mL | 160 µg/mL | 240 µg/mL | 82 µg/mL | 290 µg/mL | 125 µg/mL | PC3 LD50 (PC3): 63 µg/mL; WI38 LD50 (WI38): 125 µg/mL |
| FALLKALLKKAL-NH2 [P177, FALLKALLKKAL-NH2] | 8 | 400 µg/mL | 312 µg/mL | 0.75 | 8 µg/mL | 5000 µg/mL | 0.75 | 1.25 | 16 | 4 | 4 µg/mL | 32 µg/mL | 8 µg/mL | 8 µg/mL | 190 µg/mL |  |  | 310 µg/mL | 310 µg/mL | 270 µg/mL |  |
| CC[C@H](C)[C@H](NC(=O)CNC(=O)[C@H](CC(C)C)NC(=O)[C@H](CCCCN)NC(=O)[C@H](C)NC(=O)[C@H](CC(C)C)NC(=O)[C@H](C)NC(=O)[C@@H](NC(=O)[C@H](CCCCN)NC(=O)[C@H](C)NC(=O)[C@@H](NC(=O)[C@@H](N)CCCCN)[C@@H](C)CC)C(C)C)C(=O)NCC(=O)N[C@@H](C)C(=O)N[C@H](C(=O)N[C@@H](CC(C)C)C(=O)N[C@@H](CCCCN)C(=O)N[C@H](C(=O)N[C@@H](CC(C)C)C(=O)N[C@H](C(=O)N[C@H](C(=O)NCC(=O)N[C@@H](CC(C)C)C(N)=O)[C@@H](C)O)[C@@H](C)O)C(C)C)C(C)C [P105] | 16 |  |  |  |  |  |  |  | 32 | 16 | 8 µg/mL | 64 µg/mL | 32 µg/mL | 16 µg/mL | 635 µg/mL | > (> indicates greater than 1000) | > (> indicates greater than 1000) | > (> indicates greater than 1000) |  | 430 µg/mL (≈ 189 µM) | WI38 LD50 (WI38): 430 µg/mL; yeast (MIC or MFC) [3]: > (> indicates greater than 200 μg/mL); paerug9027 (MIC) [4]: 200 µg/mL; staph6538 (MIC) [5]: 200 µg/mL |
| FAKKFAKKFKKFAKKFAKFAFAF-NH2 [P301, reference compound] | 2 | 10 µg/mL | 624 µg/mL |  | 16 µg/mL | 625 µg/mL |  |  | 8 | 8 | 4 µg/mL | > 128 µg/mL | 8 µg/mL | 8 µg/mL | 64 µg/mL | 77 µg/mL | 170 µg/mL | 76 µg/mL | 140 µg/mL |  | PC3 LD50 (PC3): 45 µg/mL; WI38 LD50 (WI38): 66 µg/mL |
| VALALKALKKLLKKLKKLAKKAL-NH2 [P510] | 2 | 10 µg/mL | 624 µg/mL | 1.25 | 4 µg/mL | 625 µg/mL | 0.5 | 0.375 | 16 | 8 | 4 µg/mL | 64 µg/mL | 8 µg/mL | 8 µg/mL |  |  |  |  |  |  |  |
| FAKLLALALKKAL-NH2 [P97 (165)] |  |  |  |  |  |  |  |  |  |  |  |  |  |  |  |  |  |  |  |  | MIC P. aeruginosa H374 (P. aeruginosa H374 [7]; Table 9): 8; MIC P. aeruginosa H374 (P. aeruginosa H374 [7]; Table 12): 8; MIC P. aeruginosa H187 ([8]; Table 9): 16; MIC P. aeruginosa H187 ([8]; Table 12): 16; MIC C. glabrata ATCC15126 [9]: 16; MIC E. coli UB1005 (E. coli UB1005): 8 µg/mL; MIC P. aeruginosa Tb 100609 [10]: 16; MIC C. albicans 105 (Candida albicans 105): 16; MIC P. aeruginosa Tb 105663 [11]: 16; MIC S. epidermis C621 (S. epidermidis C621): 4; MIC S. typhimurium 14028S (S. typhimurium 14028S): 16 µg/mL; MIC S. aureus SAP0017 (S. aureus (MRSA)): 8 |
| CC(C)C[C@H](NC(=O)[C@H](C)NC(=O)[C@H](CC(C)C)NC(=O)[C@H](C)NC(=O)[C@H](CC(C)C)NC(=O)[C@H](CCCCN)NC(=O)[C@H](C)NC(=O)[C@H](CC(C)C)NC(=O)[C@H](CCCCN)NC(=O)[C@H](CCCCN)NC(=O)[C@H](C)NC(=O)[C@H](CC(C)C)NC(=O)[C@H](CCCCN)NC(=O)[C@H](C)NC(=O)[C@H](CC(C)C)NC(=O)[C@H](CCCCN)NC(=O)[C@H](CCCCN)NC(=O)[C@H](C)NC(=O)[C@@H](N)C(C)C)C(N)=O [P504 (155)] |  |  |  |  |  |  |  |  |  |  |  |  |  |  |  |  |  |  |  |  | MIC P. aeruginosa H374 (P. aeruginosa H374 [7]; Table 9): 8; MIC P. aeruginosa H374 (P. aeruginosa H374 [7]; Table 12): 8; MIC P. aeruginosa H187 ([8]; Table 9): 8; MIC P. aeruginosa H187 ([8]; Table 12): 8; MIC C. glabrata ATCC15126 [9]: 64; MIC E. coli UB1005 (E. coli UB1005): 4 µg/mL (≈ 2.01 µM); MIC P. aeruginosa Tb 100609 [10]: 8; MIC C. albicans 105 (Candida albicans 105): 64; MIC P. aeruginosa Tb 105663 [11]: 16; MIC S. epidermis C621 (S. epidermidis C621): 4; MIC S. typhimurium 14028S (S. typhimurium 14028S): 4 µg/mL (≈ 2.01 µM); MIC S. aureus SAP0017 (S. aureus (MRSA)): 4 |
